Measured values reported in BindingDB's records for patent US11691969 (Ribon Therapeutics, 2023).

Target: T1, Protein mono-ADP-ribosyltransferase TIPARP (Homo sapiens, UniProt Q7Z3E1)
T1 sequence (Q7Z3E1 whole entry): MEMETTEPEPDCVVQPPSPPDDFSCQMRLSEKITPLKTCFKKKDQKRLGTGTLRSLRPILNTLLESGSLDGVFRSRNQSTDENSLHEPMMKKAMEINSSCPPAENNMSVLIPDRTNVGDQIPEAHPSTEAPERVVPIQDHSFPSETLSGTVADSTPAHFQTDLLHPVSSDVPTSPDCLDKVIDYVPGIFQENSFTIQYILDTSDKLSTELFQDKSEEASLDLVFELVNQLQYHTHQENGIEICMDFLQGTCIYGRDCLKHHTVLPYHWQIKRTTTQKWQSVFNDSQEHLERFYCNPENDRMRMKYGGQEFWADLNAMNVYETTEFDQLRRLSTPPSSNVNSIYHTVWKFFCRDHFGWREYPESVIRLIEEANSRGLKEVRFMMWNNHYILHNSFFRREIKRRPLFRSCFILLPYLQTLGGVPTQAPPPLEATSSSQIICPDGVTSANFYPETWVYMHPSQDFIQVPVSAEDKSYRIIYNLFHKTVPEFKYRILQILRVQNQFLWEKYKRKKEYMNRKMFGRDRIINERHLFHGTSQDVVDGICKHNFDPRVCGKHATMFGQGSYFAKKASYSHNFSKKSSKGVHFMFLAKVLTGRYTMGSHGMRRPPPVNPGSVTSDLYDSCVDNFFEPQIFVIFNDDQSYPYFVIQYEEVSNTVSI
Assay: Enzymatic Assay
Description: Displacement of Probe A, a biotinylated probe binding to the TIPARP active site, was measured using a time-resolved fluorescence energy transfer (TR-FRET) assay. 20 nL of a dose response curve of each test compound was spotted in black 384-well polystyrene proxiplates (Perkin Elmer) using a Mosquito (TTP Labtech). Reactions were performed in a 8 μl volume by adding 6 μL of TIPARP and Probe A in assay buffer (20 mM HEPES pH=8, 100 mM NaCl, 0.1% bovine serum albumin, 2 mM DTT and 0.002% Tween20), incubating with test compound at 25° C. for 30 min, then adding 2 μL of ULight-anti 6×His and LANCE Eu-W1024 labeled streptavidin (Perkin Elmer). The final concentrations of TIPARP and Probe A were 6 nM and 2 nM, respectively. The final concentration of ULight-anti 6×His and LANCE Eu-W1024 labeled streptavidin were 4 nM and 0.25 nM, respectively. Reactions were incubated at 25° C. for an additional 30 min, then read on an Envision platereader equipped with a LANCE/DELFIA top mirror (Perkin Elmer) using excitation of 320 nm and emission of 615 nm and […] with a […]. The ratio of the 665/615 nm emission were calculated for each well to determine the amount of complex of TIPARP and Probe Ain each well. […]

SMILES: C[C@@H](CO[C@H]1CCN(C2CCN(c3ncc(C(F)(F)F)cn3)CC2)C1=O)Nc1cn[nH]c(=O)c1Br [US11691969, Example 23]
- IC50: in the range around 550 nM
